Where a name gives a salt, the structure may show the parent alone.
Target: T1, Calcium sensing receptor (hCaSR) (Homo sapiens, UniProt P41180)
T1 construct: expressed in transfected cells; host or cells: HEK293 (stably transfected)
T1 sequence (P41180 20-1078): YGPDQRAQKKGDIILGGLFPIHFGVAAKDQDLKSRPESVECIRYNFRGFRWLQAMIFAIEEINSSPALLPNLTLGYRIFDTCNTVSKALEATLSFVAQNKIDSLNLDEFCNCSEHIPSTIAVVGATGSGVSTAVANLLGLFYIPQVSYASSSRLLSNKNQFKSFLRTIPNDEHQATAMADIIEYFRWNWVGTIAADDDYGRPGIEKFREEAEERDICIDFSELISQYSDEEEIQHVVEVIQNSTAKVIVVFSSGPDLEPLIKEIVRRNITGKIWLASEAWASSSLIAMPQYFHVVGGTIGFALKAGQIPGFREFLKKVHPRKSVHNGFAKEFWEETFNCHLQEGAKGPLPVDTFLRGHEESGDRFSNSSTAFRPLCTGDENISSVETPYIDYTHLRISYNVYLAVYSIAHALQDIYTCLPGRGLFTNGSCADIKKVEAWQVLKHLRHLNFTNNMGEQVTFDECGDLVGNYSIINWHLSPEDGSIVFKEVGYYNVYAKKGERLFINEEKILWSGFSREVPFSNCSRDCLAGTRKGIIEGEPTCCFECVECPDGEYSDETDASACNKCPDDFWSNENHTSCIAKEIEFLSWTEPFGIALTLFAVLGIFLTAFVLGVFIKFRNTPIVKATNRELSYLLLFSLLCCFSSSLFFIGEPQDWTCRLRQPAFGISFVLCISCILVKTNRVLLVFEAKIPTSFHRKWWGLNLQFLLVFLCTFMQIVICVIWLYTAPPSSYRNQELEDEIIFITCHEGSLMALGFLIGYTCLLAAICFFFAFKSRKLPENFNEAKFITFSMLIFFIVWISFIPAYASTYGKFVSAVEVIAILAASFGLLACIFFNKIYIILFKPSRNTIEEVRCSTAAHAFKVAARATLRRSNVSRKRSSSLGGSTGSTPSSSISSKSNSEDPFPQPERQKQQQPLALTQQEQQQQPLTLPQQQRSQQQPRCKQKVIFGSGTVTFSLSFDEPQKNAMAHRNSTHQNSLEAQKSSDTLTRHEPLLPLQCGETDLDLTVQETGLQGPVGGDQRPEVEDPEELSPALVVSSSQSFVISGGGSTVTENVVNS
Assay: In-vitro assay of calcimimetics through modulation of calcium sensing receptor (intracellular calcium increase, FLIPR)
Assay type: cell-based
Conditions: stably transfected HEK293 cells expressing hCaSR; Fluo4NW dye; 0.3 mM CaCl2; 8-point assay; read-out: EC50 in range
How it was run: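 Stably transfected HEK293 cells expressing hCaSR, loaded 30 min with Fluo4NW dye. Intracellular calcium rise measured on FLIPR in 20 mM HEPES buffer with 0.3 mM CaCl2. EC50 derived from 8-point concentration series.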

SMILES | EC50
CC(N[C@H](C)c1cccc(Cl)c1)c1cc(-c2cccc(C(F)(F)F)c2)c2ccccc2c1 (stereo partly drawn) [Example 14, (1R)-1-(3-Chlorophenyl)-N-(1-(4-(3-(trifluoromethyl)phenyl)naphthalen-2-yl)ethyl)ethanamine hydrochloride] | < 20 nM
COc1cccc([C@@H](C)NC(C)c2cc(-c3ccc(OC)c(F)c3)c3ccccc3c2)c1 (stereo partly drawn) [Example 7, 1-(4-(3-Fluoro-4-methoxyphenyl)naphthalen-2-yl)-N-((R)-1-(3-methoxyphenyl)ethyl)ethanamine hydrochloride] | < 20 nM
CCOc1cccc([C@@H](C)NC(C)c2cc(-c3ccc(C)c(CCC(=O)O)c3)c3ccccc3c2)c1 (stereo partly drawn) [Example 157, 3-(5-(3-(1-(((R)-1-(3-Ethoxyphenyl)ethyl)amino)ethyl)naphthalen-1-yl)-2-methylphenyl) propanoic acid hydrochloride] | < 20 nM
COc1cccc([C@@H](C)NC(C)c2cc(-c3cccc(C(C)(C)C(=O)O)c3)c3ccccc3c2)c1 (stereo partly drawn) [Example 139, 2-(3-(3-(1-(((R)-1-(3-Methoxyphenyl)ethyl)amino)ethyl)naphthalen-1-yl)phenyl)-2-methylpropanoic acid hydrochloride] | 50 to 400 nM

Further lines, results first:

EC50 | SMILES
20 to 50 nM | COc1cccc([C@@H](C)NC(C)c2cc(-c3ccc(C(=O)O)c(C(F)(F)F)c3)c3ccccc3c2)c1 (stereo partly drawn) [Example 124, 4-(3-(1-(((R)-1-(3-Methoxyphenyl)ethyl)amino)ethyl)naphthalen-1-yl)-2-(trifluoromethyl) benzoic acid hydrochloride]
20 to 50 nM | CC(C)OC(=O)CCc1cc(F)cc(-c2cc(C(C)N[C@H](C)c3cccc(Cl)c3)cc3ccccc23)c1 (mixture of isomers) [Example 153, Isopropyl 3-(3-(3-(1-(((R)-1-(3-chlorophenyl)ethyl)amino)ethyl)naphthalen-1-yl)-5-fluorophenyl) propanoate hydrochloride]

Reference: patent publication US9493396B2, “Substituted naphthalene compounds as calcium sensing receptor modulators” (LUPIN ATLANTIS HOLDINGS SA, priority 2013, dated 2016)
